{"source": "patent US5376748A", "about": "“Nitroquinolone derivatives” (Merck Sharp & Dohme Limited, priority 1992, dated 1994)", "test_system": "AMPA receptor", "assay": "rat cortical slice, responses to AMPA (apparent equilibrium constant from righthand shift in concentration-response curve)", "type": "cell-based", "conditions": "righthand shift in the AMPA concentration-response curve", "method": "The compounds useful in this invention potently and selectively block responses to NMDA and/or AMPA in a brain slice from rat cortex, and inhibit the binding of agonists and antagonists to the strychnine-insensitive site present on the NMDA receptor and/or AMPA binding to rat forebrain membranes.\nThe effects of compounds of the invention on responses to NMDA and AMPA were assessed using the rat cortical slice as described by Wong et al., Proc. Natl. Acad. Sci. USA, 1986, 83, 7104. The apparent equilibrium constant (Kb) was calculated from the righthand shift in the NMDA or AMPA concentration-response curves produced by the compound under test.", "data": [{"smiles": "O=C1Nc2cc(Cl)ccc2CC1[N+](=O)[O-]", "note": "(stereo not shown) [Example 2, 7-Chloro-3-nitro-3,4-dihydroquinolin-2-one]", "values": [{"measurement": "Kb", "value": "< 150", "unit": "µM"}]}]}
